Experimental data published in ChEMBL document CHEMBL5257023, “Identification of leads for antiproliferative activity on MDA-MB-435 human breast cancer cells through pharmacophore and CYP1A1-mediated metabolism” (Eur J Med Chem, 2016).

What was measured:
[1] = tested on: MDA-MB-468; assay: Anticancer activity against human MDA-MB-468 cells assessed as inhibition of cell growth incubated for 48 hrs by SRB assay; format: functional; settings: for CC50: read-out: LC50 (the source's name)
[2] = tested on: MCF7; assay: Anticancer activity against human MCF7 cells assessed as inhibition of cell growth incubated for 48 hrs by SRB assay; format: functional; settings: for CC50: read-out: LC50 (the source's name)
[3] = tested on: MDA-MB-435; assay: Anticancer activity against human MDA-MB-435 cells assessed as inhibition of cell growth incubated for 48 hrs by SRB assay; format: functional
[4] = tested on: NCI-H226; assay: Anticancer activity against human NCI-H226 cells assessed as inhibition of cell growth incubated for 48 hrs by SRB assay; format: functional
[5] = molecular target: T1, Cytochrome P450 1A1 (Homo sapiens, UniProt P04798); assay: Inhibition of recombinant CYP1A1 (unknown origin) assessed as decrease in EROD activity using 7-ethoxyresorufin as substrate incubated for 15 mins by resorufin dye based spectrofluorimetry; format: ADME
T1 sequence (P04798 whole entry): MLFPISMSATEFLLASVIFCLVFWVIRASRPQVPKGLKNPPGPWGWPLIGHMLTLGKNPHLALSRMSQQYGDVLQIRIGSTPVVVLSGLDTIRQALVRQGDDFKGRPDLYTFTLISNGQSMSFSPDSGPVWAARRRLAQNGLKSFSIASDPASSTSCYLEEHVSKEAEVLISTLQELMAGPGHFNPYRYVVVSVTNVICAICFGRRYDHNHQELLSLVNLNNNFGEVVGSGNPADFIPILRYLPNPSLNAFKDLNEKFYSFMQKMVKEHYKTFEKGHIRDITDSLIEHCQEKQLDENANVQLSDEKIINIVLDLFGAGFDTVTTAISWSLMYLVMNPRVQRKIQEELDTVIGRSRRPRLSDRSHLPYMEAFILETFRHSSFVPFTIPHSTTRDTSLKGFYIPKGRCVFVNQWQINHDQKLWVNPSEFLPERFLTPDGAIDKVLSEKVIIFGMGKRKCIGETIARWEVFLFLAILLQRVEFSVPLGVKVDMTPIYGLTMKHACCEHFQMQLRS

[6] = tested on: MDA-MB-468; assay: Anticancer activity against human MDA-MB-468 cells assessed as cell growth at 0.1 uM incubated for 48 hrs by SRB assay; format: functional; settings: read-out: Activity
[7] = tested on: MDA-MB-468; assay: Anticancer activity against human MDA-MB-468 cells assessed as cell growth at 1 uM incubated for 48 hrs by SRB assay; format: functional; settings: read-out: Activity
[8] = tested on: MDA-MB-468; assay: Anticancer activity against human MDA-MB-468 cells assessed as cell growth at 10 uM incubated for 48 hrs by SRB assay; format: functional; settings: read-out: Activity
[9] = tested on: MDA-MB-468; assay: Anticancer activity against human MDA-MB-468 cells assessed as cell growth at 100 uM incubated for 48 hrs by SRB assay; format: functional; settings: read-out: Activity
[10] = tested on: MCF7; assay: Anticancer activity against human MCF7 cells assessed as cell growth at 0.1 uM incubated for 48 hrs by SRB assay; format: functional; settings: read-out: Activity
[11] = tested on: MCF7; assay: Anticancer activity against human MCF7 cells assessed as cell growth at 1 uM incubated for 48 hrs by SRB assay; format: functional; settings: read-out: Activity
[12] = tested on: MCF7; assay: Anticancer activity against human MCF7 cells assessed as cell growth at 10 uM incubated for 48 hrs by SRB assay; format: functional; settings: read-out: Activity
[13] = tested on: MCF7; assay: Anticancer activity against human MCF7 cells assessed as cell growth at 100 uM incubated for 48 hrs by SRB assay; format: functional; settings: read-out: Activity
[14] = tested on: NCI-H226; assay: Anticancer activity against human NCI-H226 cells assessed as cell growth at 0.1 uM incubated for 48 hrs by SRB assay; format: functional; settings: read-out: Activity
[15] = tested on: NCI-H226; assay: Anticancer activity against human NCI-H226 cells assessed as cell growth at 1 uM incubated for 48 hrs by SRB assay; format: functional; settings: read-out: Activity
[16] = tested on: NCI-H226; assay: Anticancer activity against human NCI-H226 cells assessed as cell growth at 10 uM incubated for 48 hrs by SRB assay; format: functional; settings: read-out: Activity
[17] = tested on: NCI-H226; assay: Anticancer activity against human NCI-H226 cells assessed as cell growth at 100 uM incubated for 48 hrs by SRB assay; format: functional; settings: read-out: Activity
[18] = tested on: MDA-MB-435; assay: Anticancer activity against human MDA-MB-435 cells assessed as cell growth at 0.1 uM incubated for 48 hrs by SRB assay; format: functional; settings: read-out: Activity
[19] = tested on: MDA-MB-435; assay: Anticancer activity against human MDA-MB-435 cells assessed as cell growth at 1 uM incubated for 48 hrs by SRB assay; format: functional; settings: read-out: Activity
[20] = tested on: MDA-MB-435; assay: Anticancer activity against human MDA-MB-435 cells assessed as cell growth at 10 uM incubated for 48 hrs by SRB assay; format: functional; settings: read-out: Activity
[21] = tested on: MDA-MB-435; assay: Anticancer activity against human MDA-MB-435 cells assessed as cell growth at 100 uM incubated for 48 hrs by SRB assay; format: functional; settings: read-out: Activity
[22] = molecular target: T2, CYP1A1 (Homo sapiens, UniProt P04798); assay: Inhibition of recombinant CYP1A1 (unknown origin) assessed as residual enzyme activity using 7-ethoxyresorufin as substrate at 0.01 uM incubated for 15 mins by resorufin dye based spectrofluorimetry (reference value: 100%); format: ADME; settings: recombinant CYP1A1, probe 7-ethoxyresorufin, read-out: Activity
T2 sequence (P04798 whole entry): T1 sequence (P04798 whole entry)

[23] = molecular target: T2, CYP1A1; assay: Inhibition of recombinant CYP1A1 (unknown origin) assessed as residual enzyme activity using 7-ethoxyresorufin as substrate at 0.1 uM incubated for 15 mins by resorufin dye based spectrofluorimetry (reference value: 100%); format: ADME; settings: recombinant CYP1A1, probe 7-ethoxyresorufin, read-out: Activity
[24] = molecular target: T2, CYP1A1; assay: Inhibition of recombinant CYP1A1 (unknown origin) assessed as residual enzyme activity using 7-ethoxyresorufin as substrate at 1 uM incubated for 15 mins by resorufin dye based spectrofluorimetry (reference value: 100%); format: ADME; settings: recombinant CYP1A1, probe 7-ethoxyresorufin, read-out: Activity
[25] = molecular target: T2, CYP1A1; assay: Inhibition of recombinant CYP1A1 (unknown origin) assessed as residual enzyme activity using 7-ethoxyresorufin as substrate at 10 uM incubated for 15 mins by resorufin dye based spectrofluorimetry (reference value: 100%); format: ADME; settings: recombinant CYP1A1, probe 7-ethoxyresorufin, read-out: Activity
[26] = molecular target: T2, CYP1A1; assay: Inhibition of recombinant CYP1A1 (unknown origin) assessed as residual enzyme activity using 7-ethoxyresorufin as substrate at 50 uM incubated for 15 mins by resorufin dye based spectrofluorimetry (reference value: 100%); format: ADME; settings: recombinant CYP1A1, probe 7-ethoxyresorufin, read-out: Activity
[27] = molecular target: T2, CYP1A1; assay: Inhibition of recombinant CYP1A1 (unknown origin) assessed as residual enzyme activity using 7-ethoxyresorufin as substrate at 100 uM incubated for 15 mins by resorufin dye based spectrofluorimetry (reference value: 100%); format: ADME; settings: recombinant CYP1A1, probe 7-ethoxyresorufin, read-out: Activity
[28] = molecular target: T1, Cytochrome P450 1A1; assay: Inhibition of recombinant CYP1A1 (unknown origin) assessed as decrease in EROD activity using 7-ethoxyresorufin as substrate upto 100 uM incubated for 15 mins by resorufin dye based spectrofluorimetry; format: ADME; settings: recombinant enzyme, 0.25 h

Row | SMILES | GI50 [1] [µM] | TGI [1] [µM] | CC50 [1] [µM] | GI50 [2] [µM] | TGI [2] [µM] | CC50 [2] [µM] | GI50 [3] [µM] | LC50 [3] [µM] | TGI [3] [µM] | GI50 [4] [µM] | LC50 (concentration killing 50% of cells) [4] [µM] | TGI [4] [µM] | growth at 0.1 µM [6] [%] | growth at 1 µM [7] [%] | growth at 10 µM [8] [%] | growth at 100 µM [9] [%] | growth at 0.1 µM [10] [%] | growth at 1 µM [11] [%] | growth at 10 µM [12] [%] | growth at 100 µM [13] [%] | other results
1 | Cc1ccc(-c2cc3cc(F)ccc3[nH]2)cc1N | > 100 | > 100 | > 100 | > 100 | > 100 | > 100 | < 0.1 | > 100 | > 100 | > 100 | > 100 | > 100 | 100 | 100 | 99.8 | 96.8 | 100 | 73.1 | 70.9 | 67.1 | IC50 [5]: 0.13 µM; growth at 0.1 µM [14]: 100%; growth at 1 µM [15]: 100%; growth at 10 µM [16]: 98.9%; growth at 100 µM [17]: 90%; growth at 0.1 µM [18]: 47.8%; growth at 1 µM [19]: 40%; growth at 10 µM [20]: 30.6%; growth at 100 µM [21]: 23.1%; activity at 0.25 h, 0.01 µM [22]: 96.8%; activity at 0.25 h, 0.1 µM [23]: 52.6%; activity at 0.25 h, 1 µM [24]: 35.3%; activity at 0.25 h, 10 µM [25]: 12.8%; activity at 0.25 h, 50 µM [26]: 10.6%; activity at 0.25 h, 100 µM [27]: 8.54%
2 | Cc1cc(C)cc(O[C@H](C)C(=O)Nc2ccc(F)c([N+](=O)[O-])c2)c1 | 40.9 | 79.1 | > 100 | 61.6 | > 100 | > 100 | > 100 | > 100 | > 100 | > 100 | > 100 | > 100 | 99.1 | 97.9 | 95.9 | -29.4 | 89.3 | 85.5 | 73.5 | 27.8 | growth at 0.1 µM [14]: 73.7%; growth at 1 µM [15]: 71.8%; growth at 10 µM [16]: 65.6%; growth at 100 µM [17]: 58.2%; growth at 0.1 µM [18]: 100%; growth at 1 µM [19]: 100%; growth at 10 µM [20]: 100%; growth at 100 µM [21]: 89.5%; activity at 0.25 h, 0.01 µM [22]: 98.8%; activity at 0.25 h, 0.1 µM [23]: 93.5%; activity at 0.25 h, 1 µM [24]: 94.2%; activity at 0.25 h, 10 µM [25]: 95.7%; activity at 0.25 h, 50 µM [26]: 96.6%; activity at 0.25 h, 100 µM [27]: 96.4%; inhibition (INH) [28]: Not Active
3 | Cc1cc(C)n(C(=O)CNc2ccccc2Cl)n1 | 89.3 | > 100 | > 100 | 61.1 | > 100 | > 100 | > 100 | > 100 | > 100 | > 100 | > 100 | > 100 | 100 | 100 | 94.7 | 43.3 | 89.6 | 82.9 | 77.2 | 26.7 | growth at 0.1 µM [14]: 82.5%; growth at 1 µM [15]: 73.4%; growth at 10 µM [16]: 71.5%; growth at 100 µM [17]: 63.6%; growth at 0.1 µM [18]: 100%; growth at 1 µM [19]: 100%; growth at 10 µM [20]: 100%; growth at 100 µM [21]: 85.9%; activity at 0.25 h, 0.01 µM [22]: 101%; activity at 0.25 h, 0.1 µM [23]: 100%; activity at 0.25 h, 1 µM [24]: 99.9%; activity at 0.25 h, 10 µM [25]: 98.2%; activity at 0.25 h, 50 µM [26]: 104%; activity at 0.25 h, 100 µM [27]: 99.3%; inhibition (INH) [28]: Not Active
4 | Cc1cc(C)n(C(=O)CCn2nc(C)c(Cl)c2C)n1 | > 100 | > 100 | > 100 | 54.8 | > 100 | > 100 | > 100 | > 100 | > 100 | > 100 | > 100 | > 100 | 100 | 100 | 97.7 | 68.3 | 85.9 | 78.7 | 74 | 22.9 | IC50 [5]: 10 µM; growth at 0.1 µM [14]: 80.4%; growth at 1 µM [15]: 77.6%; growth at 10 µM [16]: 71.4%; growth at 100 µM [17]: 55.6%; growth at 0.1 µM [18]: 100%; growth at 1 µM [19]: 100%; growth at 10 µM [20]: 100%; growth at 100 µM [21]: 84.9%; activity at 0.25 h, 0.01 µM [22]: 79.9%; activity at 0.25 h, 0.1 µM [23]: 62.2%; activity at 0.25 h, 1 µM [24]: 52.9%; activity at 0.25 h, 10 µM [25]: 50.6%; activity at 0.25 h, 50 µM [26]: 36.4%; activity at 0.25 h, 100 µM [27]: 35.1%
